# Results taken from patent publication US20100331297A1, “MODULATION OF PROTEIN TRAFFICKING” (FOLDRX PHARMACEUTICALS, INC., priority 2007, published 2010).
# Molecular target: ΔF508 CFTR (Homo sapiens, UniProt P13569, DEL508-508)
# Test: Corrector activity, YFP halide (iodide) quenching assay in FRT cells expressing ΔF508 CFTR
# Type: cell-based
# Parameters: expressed in transfected cells; host or cells: Fischer rat thyroid (FRT) cells
# Conditions: FRT cells ΔF508 CFTR/YFP, 24 hours with compound at 37° C., forskolin and genistein; read-out: Corrector EC50
# Description: Fisher rat thyroid (FRT) cells stably expressing ΔF508 CFTR and a halide-sensitive variant of yellow fluorescent protein (YFP) were seeded into microtiter plates and allowed to grow for 24 hours at 37° C. and 5% CO2. See Pedemonte et al., J. Clin. Invest. […] Compounds in dimethylsulfoxide (DMSO) solution were pre-diluted into cell culture medium, the medium was removed from cells, and then fresh medium containing the compounds was applied. The cells were incubated for a further 24 hours at 37° C. and 5% CO2.
# Activity of CFTR was assayed by removing the medium, washing the cell monolayer with phosphate-buffered saline solution (PBS), and then applying PBS containing forskolin and genistein. After 30 min incubation at 37° C., the plates were placed in a fluorescence plate reader equipped with a reagent injector.
# Corrector activity was calculated as follows. Normalized endpoint fluorescence was calculated by dividing the endpoint fluorescence after iodide injection by the initial fluorescence reading and multiplication by 100. Corrector EC50 values were calculated from the activity vs. concentration data using a 4-parameter log fit. The bottom of the curve was constrained to zero activity (DMSO control) while the slope, EC50, and top of the curve were fitted to the data. The EC50 was determined as the concentration that corresponds to the inflection point of the fitted curve.
# Sequence of ΔF508 CFTR (P13569 with tags, fused parts or gaps DEL508-508): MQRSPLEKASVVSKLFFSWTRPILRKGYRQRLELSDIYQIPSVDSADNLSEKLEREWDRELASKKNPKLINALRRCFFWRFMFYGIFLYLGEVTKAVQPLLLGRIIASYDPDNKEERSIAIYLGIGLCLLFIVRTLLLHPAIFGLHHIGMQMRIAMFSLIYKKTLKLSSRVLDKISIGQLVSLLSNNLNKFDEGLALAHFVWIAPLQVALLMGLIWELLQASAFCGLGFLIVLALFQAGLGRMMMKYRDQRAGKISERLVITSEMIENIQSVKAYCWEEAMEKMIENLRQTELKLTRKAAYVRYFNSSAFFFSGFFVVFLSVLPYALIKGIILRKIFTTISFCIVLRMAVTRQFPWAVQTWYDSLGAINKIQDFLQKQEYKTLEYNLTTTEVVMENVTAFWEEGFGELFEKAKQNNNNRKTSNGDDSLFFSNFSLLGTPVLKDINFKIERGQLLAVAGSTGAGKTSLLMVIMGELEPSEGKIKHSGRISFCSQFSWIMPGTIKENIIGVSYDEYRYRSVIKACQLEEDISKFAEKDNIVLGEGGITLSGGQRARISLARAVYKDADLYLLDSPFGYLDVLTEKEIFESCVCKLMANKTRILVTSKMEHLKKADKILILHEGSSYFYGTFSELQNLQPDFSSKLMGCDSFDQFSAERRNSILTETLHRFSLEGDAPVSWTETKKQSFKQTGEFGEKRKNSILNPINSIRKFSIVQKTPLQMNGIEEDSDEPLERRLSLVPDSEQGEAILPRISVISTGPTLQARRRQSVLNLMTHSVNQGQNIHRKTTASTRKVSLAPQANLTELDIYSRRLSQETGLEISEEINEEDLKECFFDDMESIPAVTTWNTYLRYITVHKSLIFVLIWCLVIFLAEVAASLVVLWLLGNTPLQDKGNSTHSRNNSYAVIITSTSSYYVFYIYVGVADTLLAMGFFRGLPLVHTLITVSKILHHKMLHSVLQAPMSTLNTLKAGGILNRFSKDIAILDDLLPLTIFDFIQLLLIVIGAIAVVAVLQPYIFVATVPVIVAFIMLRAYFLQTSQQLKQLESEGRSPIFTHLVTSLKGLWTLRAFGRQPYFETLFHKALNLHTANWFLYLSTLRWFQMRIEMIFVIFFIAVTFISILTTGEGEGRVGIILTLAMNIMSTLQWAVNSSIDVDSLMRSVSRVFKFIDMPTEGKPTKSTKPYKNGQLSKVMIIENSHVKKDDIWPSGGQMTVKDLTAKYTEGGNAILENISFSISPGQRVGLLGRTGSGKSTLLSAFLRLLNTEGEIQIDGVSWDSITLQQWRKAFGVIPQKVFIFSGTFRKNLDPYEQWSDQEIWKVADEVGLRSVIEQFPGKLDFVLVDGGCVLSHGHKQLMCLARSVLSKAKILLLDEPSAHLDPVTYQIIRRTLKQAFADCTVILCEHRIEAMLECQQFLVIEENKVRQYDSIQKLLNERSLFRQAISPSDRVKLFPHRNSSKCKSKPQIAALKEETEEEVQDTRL
row,Structure (SMILES),EC50 [µM]
1,Nc1ncnc2c1c(Oc1ccccc1)nn2C1CCNCC1 [compound 417],> 15
2,CC(C)C(=O)Nc1ncnc2c1c(-c1ccc(Cl)cc1)cn2C(C)(C)C [compound 366],> 15
3,CCn1nc([S+]([O-])c2ccccc2C)c2c(N)ncnc21 (centres unmarked) [compound 222],> 15
4,CC(C)C(=O)Nc1ncnc2c1c(-c1ccc(Cl)cc1)cn2C(C)(C)C [compound 337],< 2
5,CCNC(=O)Nc1ncnc2c1c(Cc1cccc(Cl)c1)nn2C1CN(C(=O)NCC)C1 [compound 424],> 15
6,"CC(C)(C)n1nc(-c2ccc(Cl)cc2)c2c(NC(=O)C(=O)c3ccccc3)ncnc21 [Compound No. 395, N-[1-tert-Butyl-3-(4-chloro-phenyl)-1H-pyrazolo[3,4-d]pyrimidin-4-yl]-2-oxo-2-phenyl-acetamide]",5 to 10
7,CC(C)(C)n1cc(-c2ccc(Cl)cc2)c2c(NC(=O)C3CCCO3)ncnc21 (centres unmarked) [compound 376],2 to 5
8,CC(C)N1CC(n2nc(Sc3cccc(Cl)c3)c3c(N)ncnc32)C1 [compound 360],> 15
9,CC(C)(C)n1nc(-c2ccc(Cl)cc2)c2c(Nc3ncccn3)ncnc21 [compound 235],> 15
10,CCn1nc(Oc2cccc(Cl)c2)c2c(N)ncnc21 [compound 260],> 15
11,CC(C)(C)n1nc(Br)c2c(NC(=O)c3ccccc3)ncnc21 [compound 421],2 to 5
12,CC(C)N1CC(n2nc(Sc3ccccc3)c3c(N)ncnc32)C1 [compound 384],> 15
13,CC(=O)c1ccc(-c2nn(C(C)(C)C)c3ncnc(N)c23)cc1 [compound 125],> 15
14,CCNC(=O)Nc1ncnc2c1c(-c1ccc(Cl)cc1)nn2C(C)(C)C [compound 239],> 15
15,"CNC(=S)Nc1ncnc2c1c(-c1ccc(Cl)cc1)nn2C(C)(C)C [Compound No. 397, 1-[1-tert-Butyl-3-(4-chloro-phenyl)-1H-pyrazolo[3,4-d]pyrimidin-4-yl]-3-methyl-thiourea]",> 15
16,"CC(C)(C)n1ncc2c(NC(=O)c3ccccc3)ncnc21 [Compound No. 388, N-(1-tert-Butyl-1H-pyrazolo[3,4-d]pyrimidin-4-yl)-benzamide]",> 15
17,"CCn1nc(Nc2ccccc2)c2c(N)ncnc21 [Compound No. 223, 1-Ethyl-N^3-phenyl-1H-pyrazolo[3,4-d]pyrimidine-3,4-diamine]",> 15
18,CC1CCC(n2nc(-c3ccc(Cl)cc3)c3c(N)ncnc32)CC1 (centres unmarked) [compound 361],> 15
19,CC(C)(C)n1cc(-c2ccc(Cl)cc2)c2c(NC(=O)C3CCOC3)ncnc21 (centres unmarked) [compound 374],< 2
20,CC(C)C(=O)C(=O)Nc1ncnc2c1c(-c1ccc(Cl)cc1)nn2C(C)(C)C [compound 394],> 15
21,CC(=O)N1CC(n2nc([S+]([O-])c3ccccc3)c3c(N)ncnc32)C1 (centres unmarked) [compound 404],> 15
22,Nc1ncnc2c1c(Sc1ccccc1)nn2C1CNC1 [compound 416],> 15
23,CCn1c(C)c(-c2ccc(Cl)cc2)c2c(NC(=O)C(C)C)ncnc21 [compound 364],< 2

row,Structure (SMILES),EC50 [µM]
1,"CC(=O)n1nc(-c2ccc(Cl)cc2)c2c(N)ncnc21 [compound 181, 1-[4-Amino-3-(4-chloro-phenyl)-pyrazolo[3,4-d]pyrimidin-1-yl]-ethanone]",> 15
2,CC(C)C(=O)N(C(=O)C(C)C)c1ncnc2c1c(Br)nn2C(C)(C)C [compound 426],5 to 10
3,"CN(C)/C=N/c1ncnc2c1c(-c1ccc(Cl)cc1)nn2C(C)(C)C [Compound No. 232, N′-[1-tert-Butyl-3-(4-chloro-phenyl)-1H-pyrazolo[3,4-d]pyrimidin-4-yl]-N,N-dimethyl-formamidine]",> 15
4,Nc1ncnc2c1c(Sc1cccc(Cl)c1)nn2C1CNC1 [compound 415],> 15
5,CCn1c(C)c(-c2ccc(Cl)cc2)c2c(N)ncnc21 [compound 401],2 to 5
6,"CC(C)(C)n1nc(-c2ccc(Cl)cc2)c2c(NC(=O)Nc3ccccc3)ncnc21 [Compound No. 230, 1-[1-tert-Butyl-3-(4-chloro-phenyl)-1H-pyrazolo[3,4-d]pyrimidin-4-yl]-3-phenyl-urea]",> 15
7,CC(C)(C)n1nc(Oc2cccc(Cl)c2)c2c(NC(=O)N3CCCC3)ncnc21 [compound 400],> 15
8,CCNC(=O)N1CC(n2nc(Sc3ccccc3)c3c(N)ncnc32)C1 [compound 348],> 15
9,CCn1nc([S+]([O-])c2cccc(Br)c2)c2c(N)ncnc21 (centres unmarked) [compound 392],> 15
10,"CS(=O)(=O)n1nc(-c2ccc(Cl)cc2)c2c(N)ncnc21 [compound 203, 3-(4-Chloro-phenyl)-1-methanesulfonyl-1H-pyrazolo[3,4-d]pyrimidin-4-ylamine]",> 15
11,CN1CC(n2nc(Cc3cccc4ccccc34)c3c(N)ncnc32)C1 [compound 387],> 15
12,CC(C)(C)C1N=C(c2ccc(Cl)cc2)c2c(NC(=O)C3CCC3)ncnc21 (centres unmarked) [compound 192],2 to 5
13,CCn1nc([S+]([O-])c2ccc(F)cc2)c2c(N)ncnc21 (centres unmarked) [compound 254],> 15
14,CC(C)(C)n1nc(Oc2cccc(Cl)c2)c2c(NC(=O)C3CCCC3)ncnc21 [compound 338],5 to 10
15,CC(C)(C)n1nc(-c2ccc(Cl)cc2)c2c(NC(=O)N3CCCC3)ncnc21 [compound 398],> 15
16,"Nc1ncnc2c1c(Oc1cccc(Cl)c1)nn2C1CCCC1 [Compound No. 221, 3-(3-Chloro-phenoxy)-1-cyclopentyl-1H-pyrazolo[3,4-d]pyrimidin-4-ylamine]",> 15
17,CC(=O)N1CC(n2nc(Oc3cccc(Cl)c3)c3c(N)ncnc32)C1 [compound 380],> 15
18,CC(C)(C)C(=O)Nc1ncnc2c1c(Br)nn2C(C)(C)C [compound 422],2 to 5
19,CC(=O)N1CCC(n2nc(Oc3ccccc3)c3c(N)ncnc32)CC1 [compound 420],> 15
20,CN1CCC(C(=O)Nc2ncnc3c2c(-c2ccc(Cl)cc2)nn3C(C)(C)C)C1 (centres unmarked) [compound 363],> 15
21,CCC(=O)Nc1ncnc2c1c(Oc1cccc(Cl)c1)nn2C(C)(C)C [compound 339],5 to 10
22,Nc1ncnc2c1c(Oc1cccc(Cl)c1)nn2C1CNC1 [compound 414],> 15
23,"Cc1ccc(-c2nn(C(C)(C)C)c3ncnc(Nc4ncccn4)c23)cc1 [Compound No. 234, (1-tert-Butyl-3-p-tolyl-1H-pyrazolo[3,4-d]pyrimidin-4-yl)-pyrimidin-2-yl-amine]",> 15

row,Structure (SMILES),EC50 [µM]
1,CC(C)(C)C(=O)Nc1ncnc2c1c(Oc1cccc(Cl)c1)nn2C(C)(C)C [compound 377],> 15
2,"CC(C)(C)n1nc(-c2nc3ccccc3o2)c2c(N)ncnc21 [Compound No. 355, 3-Benzooxazol-2-yl-1-tert-butyl-1H-pyrazolo[3,4-d]pyrimidin-4-ylamine]",2 to 5
3,CC(C)(C)n1cc(-c2ccc(Cl)cc2)c2c(NC(=O)C3CCC3)ncnc21 [compound 391],2 to 5
4,"CC(=O)N(C(C)=O)c1ncnc2c1c(-c1ccc(F)cc1)nn2C(C)(C)C [compound 117, N-Acetyl-N-[1-tert-butyl-3-(4-fluoro-phenyl)-1H-pyrazolo[3,4-d]pyrimidin-4-yl]-acetamide]",> 15
5,CN1CC(n2nc(Sc3cccc(Cl)c3)c3c(N)ncnc32)C1 [compound 382],> 15
6,Nc1ncnc2c1c(-c1ccc(Cl)cc1)nn2C(=O)NCc1ccccc1 [compound 215],> 15
7,CN1CC(n2nc(Sc3ccccc3)c3c(N)ncnc32)C1 [compound 383],> 15
8,CCNC(=O)N1CC(n2nc([S+]([O-])c3ccccc3)c3c(N)ncnc32)C1 (centres unmarked) [compound 419],> 15
9,CC(C)(C)n1nc(-c2ccc(Cl)cc2)c2c(NC(=O)NCc3ccccc3)ncnc21 [compound 231],> 15
10,CC(C)(C)OC(=O)N1CC(n2nc([S+]([O-])c3ccccc3)c3c(N)ncnc32)C1 (centres unmarked) [compound 385],> 15
11,"CC(C)(C)n1nc(Oc2nccc3ccccc23)c2c(N)ncnc21 [compound 370, 1-tert-Butyl-3-(isoquinolin-1-yloxy)-1H-pyrazolo[3,4-d]pyrimidin-4-ylamine]",> 15
12,Nc1ncnc2c1c(-c1ccc(Cl)cc1)nn2C(=O)Nc1ccccc1 [compound 214],> 15
13,CC(C)(C)n1nc(-c2ccc(Cl)cc2)c2c(NC(=O)C3CC3)ncnc21 [compound 396],5 to 10
14,Nc1ncnc2c1c([S+]([O-])c1cccc(Cl)c1)nn2C1CNC1 (centres unmarked) [compound 418],> 15
15,CCn1nc(Sc2ccc(C)cc2)c2c(N)ncnc21 [compound 255],> 15
16,CC(C)(C)n1cc(-c2cccc(Cl)c2)c2c(N)ncnc21 [compound 354],> 15
17,Nc1ncnc2c1c(-c1ccc(Cl)cc1)nn2C(=O)C1CC1 [compound 182],5 to 10
18,CC(C)(C)n1cc(-c2ccc(Cl)cc2)c2c(NC(=O)N3CCCC3)ncnc21 [compound 399],> 15
19,CC(C)C(=O)Nc1ncnc2c1cnn2C(C)(C)C [compound 390],> 15
20,CCOC(=O)N1CC(n2nc(Oc3cccc(Cl)c3)c3c(N)ncnc32)C1 [compound 403],> 15
21,Nc1ncnc2c1c(Oc1ccccc1)nn2C1CCOC1 (centres unmarked) [compound 359],> 15
22,CCn1nc([S+]([O-])c2cccc(C(F)(F)F)c2)c2c(N)ncnc21 (centres unmarked) [compound 340],> 15
